Experimental data from article PMC10845145, “Synergistic Effect of Brevetoxin BTX-3 and Ciguatoxin CTX3C in Human Voltage-Gated Nav1.6 Sodium Channels” (Chemical Research in Toxicology, 2023).
Read-outs that look alike come from different tables or passages of the source.

How the values were obtained:
[1] = target: T1, human Nav1.6 voltage-gated sodium channels (Homo sapiens, UniProt Q9UQD0); experiment: Whole-cell patch-clamp recording of sodium current activation (peak INa, activation voltage) in HEK293 cells transfected with Nav1.6; assay type: cell-based; conditions: for +10 nM BTX-3 normalized INa (max) / normalized INa (max): control = –1; for normalized INa (max): CTX3C alone; for shift in the activation voltage for CTX3C: vs control
T1 construct: host or cells: HEK293
T1 sequence (Q9UQD0 whole entry): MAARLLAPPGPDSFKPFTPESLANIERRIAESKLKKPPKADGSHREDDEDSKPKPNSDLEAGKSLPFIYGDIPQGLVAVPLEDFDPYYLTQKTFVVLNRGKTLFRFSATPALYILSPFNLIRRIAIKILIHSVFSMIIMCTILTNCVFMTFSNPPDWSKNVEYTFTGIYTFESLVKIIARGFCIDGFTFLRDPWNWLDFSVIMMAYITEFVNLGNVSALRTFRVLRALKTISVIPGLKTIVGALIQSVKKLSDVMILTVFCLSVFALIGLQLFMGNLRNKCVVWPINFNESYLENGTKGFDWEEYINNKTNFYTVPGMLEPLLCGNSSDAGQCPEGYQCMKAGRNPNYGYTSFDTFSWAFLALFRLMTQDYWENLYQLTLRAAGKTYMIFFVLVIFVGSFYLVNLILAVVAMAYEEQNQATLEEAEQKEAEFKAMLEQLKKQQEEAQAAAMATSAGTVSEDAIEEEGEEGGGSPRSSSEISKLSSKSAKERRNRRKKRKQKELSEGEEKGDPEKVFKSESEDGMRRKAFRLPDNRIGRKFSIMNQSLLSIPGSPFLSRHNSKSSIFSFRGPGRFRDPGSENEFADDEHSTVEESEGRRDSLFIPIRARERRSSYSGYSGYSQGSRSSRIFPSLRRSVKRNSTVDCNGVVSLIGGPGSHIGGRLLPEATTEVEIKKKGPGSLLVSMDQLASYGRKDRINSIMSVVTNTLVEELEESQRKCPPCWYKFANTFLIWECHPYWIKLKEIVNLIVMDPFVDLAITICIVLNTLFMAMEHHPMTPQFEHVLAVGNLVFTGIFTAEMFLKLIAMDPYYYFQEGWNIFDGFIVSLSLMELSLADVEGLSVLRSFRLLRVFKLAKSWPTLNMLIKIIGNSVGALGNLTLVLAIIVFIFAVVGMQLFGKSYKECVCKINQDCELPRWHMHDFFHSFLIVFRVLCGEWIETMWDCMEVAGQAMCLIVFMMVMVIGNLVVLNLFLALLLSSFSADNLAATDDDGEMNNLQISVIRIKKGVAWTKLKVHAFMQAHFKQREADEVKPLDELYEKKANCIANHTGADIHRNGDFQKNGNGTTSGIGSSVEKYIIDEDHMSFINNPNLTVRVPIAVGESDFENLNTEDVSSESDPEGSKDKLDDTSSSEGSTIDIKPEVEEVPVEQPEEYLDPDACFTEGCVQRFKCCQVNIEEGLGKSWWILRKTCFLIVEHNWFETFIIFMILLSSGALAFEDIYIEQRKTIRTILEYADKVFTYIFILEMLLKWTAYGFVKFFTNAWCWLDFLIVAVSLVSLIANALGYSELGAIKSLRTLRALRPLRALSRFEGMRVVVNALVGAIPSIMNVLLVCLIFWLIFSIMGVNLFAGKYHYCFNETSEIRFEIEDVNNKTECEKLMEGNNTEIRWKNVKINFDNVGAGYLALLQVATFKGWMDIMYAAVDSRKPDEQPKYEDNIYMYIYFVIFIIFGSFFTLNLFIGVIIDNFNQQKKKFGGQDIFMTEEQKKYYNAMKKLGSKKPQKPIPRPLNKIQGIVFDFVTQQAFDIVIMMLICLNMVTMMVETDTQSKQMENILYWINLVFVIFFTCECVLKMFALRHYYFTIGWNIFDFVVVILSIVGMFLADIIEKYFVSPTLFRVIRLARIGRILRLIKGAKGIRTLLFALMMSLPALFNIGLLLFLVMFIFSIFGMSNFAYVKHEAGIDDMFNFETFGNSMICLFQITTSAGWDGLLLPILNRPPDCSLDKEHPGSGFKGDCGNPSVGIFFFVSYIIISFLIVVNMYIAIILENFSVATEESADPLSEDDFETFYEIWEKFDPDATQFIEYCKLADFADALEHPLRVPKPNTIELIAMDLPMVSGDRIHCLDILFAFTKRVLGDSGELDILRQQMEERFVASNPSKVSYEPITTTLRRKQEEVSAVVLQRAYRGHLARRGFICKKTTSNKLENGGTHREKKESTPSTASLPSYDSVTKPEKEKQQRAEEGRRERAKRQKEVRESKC
Protocol: (§1) The human embryonic kidney cell line (HEK293) transfected with the α subunit of the Nav1.6 sodium channel isoform was kindly provided, under a material transfer agreement, by GlaxoSmithKline R&D (Stevenage, U.K). The cells were cultured in Dulbecco’s modified Eagle’s medium (DMEM)/F12 medium enriched with glutamax, nonessential amino acid solution (MEM, Gibco, 1% w/v), 10% fetal bovine serum, and 0.4 mg/mL Geneticin (G418, Gibco) and maintained at 37 °C in a humidified 95% […]/5% CO2 atmosphere until they reached 80% of confluence, replacing the medium every 2 days. The cells were subcultured in 12-well plates in glass coverslips at a density of 60,000 cells/mL. Twenty-four or 48 h before electrophysiological recordings, the cells were placed at 30 °C to maximize sodium channel expression.[32]
(§2) For electrophysiological recordings, glass coverslips with cells were placed in a recording chamber with 0.5 mL Lockés buffer as the extracellular solution. Recording electrodes were fabricated with borosilicate glass microcapillaries (1.5 outer diameter) and had resistances ranging from 4 to 10 MΩ. Pipettes were filled with an intracellular solution containing 120 mM CsF, 10 mM EGTA, 10 mM HEPES, and 15 mM NaCl and pH adjusted to 7.25 with CsOH. Voltage-gated sodium currents were recorded at room temperature 5 min after reaching the whole-cell configuration with a Multiclamp 700B amplifier and digitalized with the Digidata 1440A (both from Axon Instruments, California, U.S.A.) maintaining the cells at a holding potential (Vhold) of −55 mV. Signals were sampled at 50 kHz after low-pass Bessel filtering at 10 kHz. Compensation circuitry was used to reduce the series resistance by at least 70%. To record the activation of VGSCs, voltage steps from −80 to +80 mV in 10 mV step increments were applied prior to a test pulse of −90 mV. Fast inactivation was measured at 0 mV after prior test pulses of 300 ms duration ranging from −100 to 0 mV in 10 mV voltage step increments after maintaining the holding potential at −90 mV during 10 ms.
(§3) All data are expressed as means ± SEMs of n determinations. Data analysis was performed using GraphPad Prism 8. Statistical comparisons were performed using one-way analysis of variance (ANOVA), followed by post hoc Dunnett̀s tests. p values ≤ 0.05 were considered statistically significant, and IC50 values were determined by fitting the data with a log (inhibitor) vs normalized response model.
(§4) The combination index (CI) was calculated with the Chou–Talalay equation[33] following the formula [drawing 1] 1 where (DX)1 is the IC50 value of CTX3C alone, (DX)2 the IC50 value of BTX-3 alone, and D1 and D2 are the IC50 values of CTX3C and BTX-3, respectively, in combination. According to the Chou–Talalay method, additivity is established if CI = 1, synergism if CI < 1, and antagonism if CI > 1.

[2] = target: T1, human Nav1.6 voltage-gated sodium channels; experiment: Whole-cell patch-clamp recording of fast inactivation of sodium channels in HEK293 cells transfected with Nav1.6; assay type: cell-based; conditions: for IC50: read-out: IC50, hyperpolarizing shift in the inactivation voltage
Protocol: as §1, §2, §3, §4

[3] = target: rat brain sodium channels; conditions: cited from earlier work; for Ki: binding affinity to rat brain sodium channels, read-out: inhibitory constant (ki)

In the case of `CC1CC2OC3C(CC2OC2CC4OC5CC=CCC6OC7C=CC8OC9C(CC8OC7CC=CC6OC5CC(O)C4(C)OC2C1)OC1CC=CCOC1C9O)OC1C(C)C(C)C2(CCCO2)OC1C(O)C3C` (stereo not shown) [CTX3C, ciguatoxin 3C], the “agonist profile on the channels (negative displacement in the activation voltage)” value [1] is reported as “full agonist”, the “effect on maximum INa peak” value ([1]; 0.17 nM CTX3C) is reported as “a decrease of the maximum INa peak was elicited” and the “effect on the activation voltage” value ([1]; 0.17 nM CTX3C alone) is reported as “no changes in the activation voltage were observed”. The “+10 nM BTX-3 normalized INa (max)” value ([1]; CTX3C 0.0001 nM in the presence of 10 nM BTX-3) was “–0.89 ± 0.08”, the “+10 nM BTX-3 normalized INa (max)” value ([1]; CTX3C 0.001 nM in the presence of 10 nM BTX-3) was “–0.89 ± 0.13” and the “+10 nM BTX-3 normalized INa (max)” value ([1]; CTX3C 0.01 nM in the presence of 10 nM BTX-3) was “–0.88 ± 0.13”. The “+10 nM BTX-3 normalized INa (max)” value ([1]; CTX3C 0.1 nM in the presence of 10 nM BTX-3) was “–0.90 ± 0.11”, the “+10 nM BTX-3 normalized INa (max)” value ([1]; CTX3C 1 nM in the presence of 10 nM BTX-3) was “–0.68 ± 0.09” and the “+10 nM BTX-3 normalized INa (max)” value ([1]; CTX3C 5 nM in the presence of 10 nM BTX-3) was “–0.46 ± 0.09”. The “normalized INa (max)” value ([1]; 0.0001 nM) was “–0.79 ± 0.05”, the “normalized INa (max)” value ([1]; 0.001 nM) was “–0.62 ± 0.08” and the “normalized INa (max)” value ([1]; 0.01 nM) was “–0.66 ± 0.09”. The “normalized INa (max)” value ([1]; 0.1 nM) was “–0.63 ± 0.09”, the “normalized INa (max)” value ([1]; 1 nM) was “–0.27 ± 0.07” and the “normalized INa (max)” value ([1]; 5 nM) was “–0.32 ± 0.04”. The “activation voltage for CTX3C” value ([1]; [CTX3C] 0.0001 nM) was “–30.0 ± 0 mV”, the “shift in the activation voltage for CTX3C” value (“shift” for short) ([1]; [CTX3C] 0.0001 nM) was 0.71 ± 5.4 mV and the “activation voltage for CTX3C” value ([1]; [CTX3C] 0.001 nM) was “–30.0 ± 0 mV”. The “activation voltage for CTX3C” value ([1]; [CTX3C] 0.01 nM) was “–33.3 ± 3.3 mV”, the “shift” value ([1]; [CTX3C] 0.01 nM) was “–2.62 ± 5.6 mV” and the “activation voltage for CTX3C” value ([1]; [CTX3C] 0.1 nM) was “–39.0 ± 1.8 mV”. For the same compound, the “shift” value ([1]; [CTX3C] 0.1 nM) was “–8.29 ± 3.3 mV”, the “activation voltage for CTX3C” value ([1]; [CTX3C] 1 nM) was “–46.7 ± 2.9 mV” and the “activation voltage for CTX3C” value ([1]; [CTX3C] 5 nM) was “–51.67 ± 4.8 mV”. The “shift” value ([1]; [CTX3C] 5 nM) was “–20.95 ± 4.8 mV”, the “peak sodium current at −10 mV” value ([1]; after bath application of 1 nM CTX3C, control −1156 ± 189 pA) was −692 ± 372 pA and the “increased potency on the activation voltage after combination” value ([1]; combination of CTX3C and BTX-3 vs each alone) was 10 times. For the same compound, the IC50 ([1]; single toxin alone, read-out: IC50, negative shift in the activation voltage) was 2.58 nM, the IC50 ([1]; single toxin alone, read-out: IC50, percent inhibition of the peak inward sodium currents (INa)) was 0.173 nM and the “inactivation voltage for CTX3C (V1/2)” value ([2]; [CTX3C] 0.001 nM) was “–50.1 ± 4.1 mV”. The “inactivation voltage for CTX3C (V1/2)” value ([2]; [CTX3C] 0.01 nM) was “–47.4 ± 1.4 mV”, the “inactivation voltage for CTX3C (V1/2)” value ([2]; [CTX3C] 0.1 nM) was “–53.4 ± 6.8 mV” and the “inactivation voltage for CTX3C (V1/2)” value ([2]; [CTX3C] 1 nM) was “–54.9 ± 5 mV”. For the same compound, the IC50 ([2]; single toxin alone) was 306 nM, the Ki [3] was 0.47 nM and the “higher affinity than that of BTX-3s” value ([3]; binding to VGSC, at concentrations of 1 nM of the compounds) was 20 fold.

In the case of `C=C(CO)CC1CC(O)C2(C)OC3CC4OC5CC6(C)OC7(C)CCC8OC9CC%10(C)OC%11C(C)=CC(=O)OC%11CC%10OC9CC(C)C8OC7CC6OC5(C)C/C=C\C4OC3CC2O1` (stereo not shown) [BTX-3, brevetoxin 3], the “agonist profile on the channels (negative displacement in the activation voltage)” value [1] is reported as “partial agonist”, the “decrease in the maximum INa at −20 mV” value [1] is reported as 21.9 ± 10.9% and the “decrease of peak sodium current amplitude” value [1] is reported as 31.2 ± 15%. For the same compound, the “increased potency on the activation voltage after combination” value [1] was 10 times, the “maximum INa at −20 mV” value [1] was −2887.70 ± 402.0 pA and the IC50 ([1]; read-out: IC50, negative shift in the activation voltage) was 46.2 nM. It also gave an IC50 ([1]; read-out: IC50, percent inhibition of the peak inward sodium currents (INa)) of 202 nM and an IC50 [2] of 4700 nM.

In the case of `C[C@@H]1C[C@@H]2O[C@@H]3[C@@H](C)[C@H](O)[C@@H]4O[C@]5(C[C@H](O)CO5)[C@@H](C)[C@H](C)[C@H]4O[C@H]3C[C@H]2O[C@H]2C[C@H]3O[C@H]4C/C=C\C[C@H]5O[C@H]6C=C[C@H]7O[C@H]8[C@H](O)[C@H]9O[C@@H](/C=C/[C@H](O)CO)C=CC[C@@H]9O[C@@H]8C[C@@H]7O[C@@H]6C=C[C@@H]5O[C@@H]4C[C@@H](O)[C@]3(C)O[C@@H]2C1` [ciguatoxin-1B], the Ki [3] is given as 0.041 nM and the “ki difference relative to BTX-1” value ([3]; ciguatoxin-1B vs BTX-1) is given as “more than 50 fold”.
